Assay results reported in ChEMBL document CHEMBL1132276, “Development of predictive retention-activity relationship models of tricyclic antidepressants by micellar liquid chromatography” (J Med Chem, 1999).

Legend:
in vivo = details: plasma
Description: Plasma clearance for the compound was determined.

[1] = Protonation constant of the compound.; type: ADME
[2] = biological target: T1, Alpha-1A adrenergic receptor (Rattus norvegicus, UniProt P43140); assay: Compound was tested for its inhibitory activity against Alpha-1 adrenergic receptor
T1 sequence (P43140 whole entry): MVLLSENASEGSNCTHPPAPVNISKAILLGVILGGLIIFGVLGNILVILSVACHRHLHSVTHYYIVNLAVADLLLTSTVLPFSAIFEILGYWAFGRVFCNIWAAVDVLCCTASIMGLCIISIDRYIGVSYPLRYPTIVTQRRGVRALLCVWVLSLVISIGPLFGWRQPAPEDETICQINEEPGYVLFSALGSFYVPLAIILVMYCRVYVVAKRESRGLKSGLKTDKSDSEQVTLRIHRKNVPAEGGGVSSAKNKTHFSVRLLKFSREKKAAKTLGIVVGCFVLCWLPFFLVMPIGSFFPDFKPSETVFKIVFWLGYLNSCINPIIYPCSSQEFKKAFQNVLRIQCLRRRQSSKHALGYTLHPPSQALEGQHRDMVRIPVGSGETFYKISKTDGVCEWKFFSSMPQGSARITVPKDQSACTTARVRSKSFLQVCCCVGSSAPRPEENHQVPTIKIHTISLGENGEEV

[3] = log k (capacity factor) was measured by micellar liquid chromatography in Brij35 medium; details: 0.04 M Brij35
[4] = Half life period is estimated; type: ADME
[5] = Compound was tested for its binding affinity towards brain (neocortex) Adenylate cyclase; design: species or system Cavia porcellus
Histamine H2 receptor = Histamine H2 receptor (Cavia porcellus, UniProt P47747); assay: Inhibitory activity against brain adenylate cyclase Histamine H2 receptor; type: functional
physchem [6] = details: octanol/water
[7] = Compound was tested for its binding affinity towards brain (Hippocampus) Adenylate cyclase; design: species or system Cavia porcellus
physchem [8] = details: buffer, pH 7.4
Description: log P values determined at pH 7.4

[9] = Compound was tested for its inhibitory activity against Noradrenaline receptor; design: species or system Rattus norvegicus
[10] = Volume of distribution in the plasma fluid was determined; type: ADME, organism-based
[11] = octanol/water
[12] = Therapeutic plasma levels for the compound was evaluated.; type: ADME, cell-free
[13] = Protonation constant by using Brij35 as a medium; type: ADME
Histamine H1 receptor = Histamine H1 receptor (Rattus norvegicus, UniProt P31390); assay: Compound tested for its inhibitory activity against Histamine H1 receptor
[14] = biological target: Serotonin (5-HT) receptor; assay: Compound was tested for its inhibitory activity against 5-hydroxytryptamine receptor; type: protein assay, Rattus norvegicus
[15] = buffer, pH 7.4
Description: log P values determined at pH 7.4

[16] = log P value at pH 7.4; type: physicochemical; details: buffer
[17] = Partition coefficient (logP); type: physicochemical; details: octanol/water

Chain of Histamine H2 receptor (P47747 whole entry): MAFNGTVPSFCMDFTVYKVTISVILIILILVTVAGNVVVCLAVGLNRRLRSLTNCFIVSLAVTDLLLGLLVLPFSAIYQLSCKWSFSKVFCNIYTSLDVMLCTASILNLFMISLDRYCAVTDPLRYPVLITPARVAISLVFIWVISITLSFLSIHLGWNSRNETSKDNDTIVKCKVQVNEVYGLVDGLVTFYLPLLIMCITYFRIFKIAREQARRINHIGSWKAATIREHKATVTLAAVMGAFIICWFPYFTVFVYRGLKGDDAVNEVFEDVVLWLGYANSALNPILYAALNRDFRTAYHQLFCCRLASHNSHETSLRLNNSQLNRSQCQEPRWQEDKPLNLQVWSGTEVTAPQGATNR
Chain of Histamine H1 receptor (P31390 whole entry): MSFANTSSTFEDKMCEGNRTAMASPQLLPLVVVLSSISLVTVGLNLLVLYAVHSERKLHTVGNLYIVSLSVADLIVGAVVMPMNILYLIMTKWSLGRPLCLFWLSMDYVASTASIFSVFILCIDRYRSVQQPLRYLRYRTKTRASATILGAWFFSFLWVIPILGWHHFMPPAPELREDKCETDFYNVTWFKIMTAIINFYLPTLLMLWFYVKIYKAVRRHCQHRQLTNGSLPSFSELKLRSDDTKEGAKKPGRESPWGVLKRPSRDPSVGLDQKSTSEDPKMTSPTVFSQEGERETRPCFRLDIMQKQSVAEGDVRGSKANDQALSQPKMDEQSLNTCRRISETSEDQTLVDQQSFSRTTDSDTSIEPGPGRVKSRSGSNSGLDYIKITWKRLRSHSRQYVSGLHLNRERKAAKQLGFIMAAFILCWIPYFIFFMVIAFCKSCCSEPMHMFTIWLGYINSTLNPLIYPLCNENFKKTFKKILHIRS

| Compound | clearance (in vivo) [mL/min] | pKa [1] | IC50 [2] [nM] | Log K [3] | half-life [4] [h] | Ki [5] [nM] | IC50 (Histamine H2 receptor) [nM] | logP (physchem [6]) | Ki [7] [nM] | logD (physchem [8]) | IC50 [9] [nM] | Vd [10] [L/kg] | logP [11] | T.P.L [12] [ng/mL] | pKa [13] | IC50 (Histamine H1 receptor) [nM] | IC50 [14] [nM] | logD [15] | logD [16] | logP [17] |
| --- | --- | --- | --- | --- | --- | --- | --- | --- | --- | --- | --- | --- | --- | --- | --- | --- | --- | --- | --- | --- |
| CN(C)CC/C=C1/c2ccccc2COc2ccccc21 [DOXEPIN] | 850 | 9 | 10 | 1.69 | 16.5 | 190 | 1600 | 3.88 | 170 | 2.27 | 65 |  |  |  |  |  |  |  |  |  |
| CN(C)CCCN1c2ccccc2CCc2ccc(Cl)cc21 [CLOMIPRAMINE] | 1210 | 9.38 |  | 1.89 |  | 43 | 720 |  | 55 | 3.32 | 46 | 13.5 | 5.19 | 90 |  |  |  |  |  |  |
| CN(C)CCC=C1c2ccccc2CSc2ccccc21 [DOTHIEPIN] |  | 9.25 |  | 1.74 |  |  |  | 4.52 |  | 2.66 |  |  |  |  |  |  |  |  |  |  |
| CNCCCN1c2ccccc2CCc2ccccc21 [DESIPRAMINE] |  |  |  | 1.46 | 37.5 | 320 | 3800 |  | 350 |  | 2 | 22 |  | 212.5 |  |  |  |  |  |  |
| CN1CCN(C2=Nc3ccccc3Oc3ccc(Cl)cc32)CC1 [LOXAPINE] |  | 6.6 |  | 1.86 |  |  |  |  |  |  |  |  |  |  |  |  |  |  |  |  |
| c1ccc2c(c1)CCc1ccccc1N2C1CN2CCC1CC2 (stereo not given) [QUINUPRAMINE] |  |  |  | 1.62 |  |  |  | 4.94 |  | 1.36 |  |  |  |  | 7.85 |  |  |  |  |  |
| CN(C)CCC=C1c2ccccc2CCc2ccccc21 [AMITRIPTYLINE] | 1200 | 9.42 | 20 | 1.84 | 27.5 | 60 | 660 | 4.64 | 53 | 2.62 | 41 | 15 |  | 180 |  | 20 | 44 |  |  |  |
| CC(CN(C)C)CN1c2ccccc2CCc2ccccc21 (stereo not given) [TRIMIPRAMINE] |  |  |  | 1.86 |  |  |  | 4.73 |  |  |  |  |  |  | 6.77 |  |  | 4.64 |  |  |
| CNCCC=C1c2ccccc2CCc2ccccc21 [NORTRIPTYLINE] | 1320 | 9.7 | 40 | 1.52 | 35.5 | 280 | 7000 | 4.32 | 450 | 2.02 | 9 | 35 |  |  |  | 50 |  |  |  |  |
| CNCCCC12CCC(c3ccccc31)c1ccccc12 [MAPROTILINE] |  | 10.5 |  | 1.47 |  |  |  | 4.22 |  | 1.12 |  |  |  |  |  |  |  |  |  |  |
| O=C(O)CCCCCCNC1c2ccccc2CCc2ccccc21 [AMINEPTINE] |  |  |  | 1.09 |  |  |  |  |  |  |  |  |  |  | 5.24 |  |  |  | 2.26 | 2.44 |
| Clc1ccc2c(c1)C(N1CCNCC1)=Nc1ccccc1O2 [AMOXAPINE] |  | 7.6 |  | 1.63 |  |  |  | 3.89 |  |  |  |  |  |  |  |  |  | 3.48 |  |  |
| CN(C)CCCN1c2ccccc2CCc2ccccc21 [IMIPRAMINE] |  |  |  | 1.8 |  | 160 | 1900 |  | 160 |  | 46 | 30 |  | 275 |  | 60 |  |  |  |  |
| CN(C)CCC=C1c2ccccc2C(C)(C)c2ccccc21 |  | 7.38 |  | 1.97 |  |  |  | 5.12 |  | 4.83 |  |  |  |  |  |  |  |  |  |  |
| CN1CCN2c3ccccc3Cc3ccccc3C2C1 (stereo not given) [MIANSERIN] |  | 7.1 |  | 1.87 | 25 | 71 | 880 | 4.26 | 65 | 4.08 |  | 16 |  |  |  |  |  |  |  |  |
